Experimental data: US6337130B1, “Acid-triggered release microcapsules” (Zeneca Limited, priority 1998, dated 2002)

Experiment: In vitro release rate evaluation: evaporative weight loss of butylate from microcapsules under vacuum (Cahn RH electrobalance)
Format: physicochemical
Details: 40° C.
Description: This composition was tested in vitro for release rate in the presence of acid as follows: 5.0 grams of formulation were diluted with 25.0 grams of water. Two 1.5 gram aliquots were removed, vacuum filtered onto 0.22 μm filter paper, and placed in a jar (to reduce volatilization of butylate) until the release rate measurement was performed. The remainder of the solution was treated with a concentrated solution of p-toluenesulfonic acid to pH 2.02. The acid treated solution was rolled for 10 minutes after which several 1.5 gram aliquots of the acid treated solution were removed, vacuum filtered onto 0.22 μm filter paper, and placed in a jar (to reduce volatilization butylate) until the release rate measurement was performed.
Release rate studies were conducted employing a Cahn RH electrobalance to monitor the rate of evaporative weight loss of butylate (a model compound with a high vapor pressure) from microcapsules under vacuum. The sample (on the filter paper) was placed on the sample pan of the electrobalance and allowed to equilibrate at 40° C. for 10-15 minutes in the sealed system prior to placing under vacuum. The weight loss, measured with the electrobalance enclosed under vacuum, was recorded on a chart recorder.

Structure (SMILES): CCSC(=O)N(CC(C)C)CC(C)C [butylate, S-ethyl diisobutyl thiocarbamate]
- release rate of non-encapsulated butylate: The release rate of non-encapsulated butylate was determined to be about 17-19 mg/min.
